How the values were obtained:
[1] = tested on: airway obstruction; conditions: intravenous, sensitized guinea-pigs; cited from earlier work
[2] = Skin permeation of CBD, Franz-type diffusion cell; assay type: in vitro ADME
Description: Dermatomed skin from a single donor was mounted in a Franz-type diffusion cell (0.55 cm^2 receptor fluid exposure surface area) and dosed with 5 ul of 2-[3-methyl-6-(1-methylethenyl)-2-cyclohexen-1-yl]-5-pentyl-1,3-benzenediol (CBD), BTX 1503 5% Solution, formulated in an mixture of a volatile solvent (hexylmethyldisiloxane/polymethylsiloxane—93% w/w), and residual solvent (arlamol E—2% w/w) at a concentration of 5.0% (w/w; 35.5 mg/ml). Following dosing, receptor phase samples were collected at 4, 10, 24 and 48 hours; after which the study was terminated.
The residual formulation was removed by tape stripping and the epidermis and dermis separated by blunt dissection. The levels of CBD in the epidermis, dermis, and receptor fluid samples were then analyzed using a bioanalytical method with LC-MS/MS detection.

[3] = tested on: immortalized human sebocytes; conditions: cited from earlier work
[4] = tested on: cardiac inflammation; conditions: injected into rats; cited from earlier work
[5] = Healthy volunteer study of single and multiple-dose BTX 1503 5% Solution (BTX.2017.001): pharmacokinetics, safety; assay type: in vivo, human; conditions: for mean CBD trough level Day 15: multiple dose phase
Description: The pharmacokinetics (PK) of single and multiple-dose administration of BTX 1503 5% Solution were evaluated in a healthy volunteer study. In this study, BTX 1503 5% Solution was applied as a single dose either QD or BID (12 hrs apart) on Day 1 followed by a 6-day washout period, then either QD or BID for 14 days (Day 8 to Day 21). Five subjects were enrolled in each cohort and doses were escalated for each sequential cohort enrolled with the following doses. • Cohort 1: 37.5 mg CBD/day or 0.066 mg/cm^2/day^a applied as 1 mL of BTX 1503 5% (w/w) QD • Cohort 2: 75 mg CBD/day or 0.133 mg/cm^2/day applied as 1 mL BTX 1503 5% (w/w) BID • Cohort 3: 112.5 mg CBD/day or 0.199 mg/cm^2/day applied as 3 mL of BTX 1503 5% (w/w) QD • Cohort 4: 225 mg CBD/day or 0.398 mg/cm^2/day applied as 3 mL of BTX 1503 5% (w/w) BID Area of application assumed to be 565 cm^2 (i.e., on the face), which is reported by the European Union Scientific Committee on Consumer Safety (SCCS) to be half of the surface area for a female head (SCCS Notes of Guidance for the Testing of Cosmetic Substances and Their Safety Evaluation, 8th edition, 2012; Table 2).
Blood samples were taken for PK assessments on Day 1 (Baseline) at pre-dose (15 mins before dosing), 30, 60 and 90 mins and 2, 2.5, 3, 4, 6, 8 and 12 hrs, and 24 hrs after the first single dose. For participants that received BID dosing, samples were also taken at 30, 60 and 90 mins and 2, 2.5, 3, 4, 6, and 8 hrs after the second dose on Day 1.
During the multiple dose (14-day) phase, trough levels were obtained before the morning application on Day 15. On Day 21, blood samples were taken for PK assessments at pre-dose (15 mins before dosing), 30, 60 and 90 mins and 2, 2.5, 3, 4, 6, 8 and 12 hrs, 24 hrs and 48 hrs after the morning dose. For participants that received BID dosing, samples were also be taken at 30, 60 and 90 mins and 2, 2.5, 3, 4, 6, and 8 hrs after the second dose on Day 21. A sample was obtained on Day 23, 48 hrs after the last morning dose. […]

[6] = Open-label study in patients with acne vulgaris: study drug plasma levels; assay type: in vivo, human
Excerpt: Eligible subjects were enrolled within 14 days after the Screening Visit. Assessments for safety (CBC, chemistry, urinalysis, and vital signs) were obtained at the Baseline Visit (Day 1). If the Screening and Baseline Visits were not conducted on the same day, a UPT for WOCBP, lesion counts on the face, an Investigator's Global Assessment (IGA) for facial acne and a UDS were repeated. Baseline photographs of the face and a blood sample for Baseline study drug plasma levels were obtained. […] Cutaneous tolerability assessments were conducted at one hour after the first application. […]
Safety was the primary outcome measure. The safety outcomes were measured through assessment of: • AEs monitored from time of consent through the end of study. • Cutaneous tolerability (erythema, scaling, dryness, burning/stinging, and irritant/allergic contact dermatitis) collected at Baseline, Day 14, Day 28, and Day 35 and graded using the following scale: 0, None; 1, Slight; 2, Moderate; 3, Severe. • Vital signs (temperature, blood pressure, and pulse) obtained at Baseline, Day 14, Day 28 and Day 35. • Complete blood count (CBC), chemistry, and urinalysis at Baseline and at Day 28. Blood levels of study drug will be measured at Baseline and prior to dosing (trough level) on Day 14, Day 28, and Day 35. […]

[7] = tested on: anandamide; conditions: in vitro; cited from earlier work
[8] = target: human vanilloid receptor type 1 (VR1) (Homo sapiens, UniProt Q8NER1); conditions: in vitro; cited from earlier work
human vanilloid receptor type 1 (VR1), sequence (Q8NER1 whole entry): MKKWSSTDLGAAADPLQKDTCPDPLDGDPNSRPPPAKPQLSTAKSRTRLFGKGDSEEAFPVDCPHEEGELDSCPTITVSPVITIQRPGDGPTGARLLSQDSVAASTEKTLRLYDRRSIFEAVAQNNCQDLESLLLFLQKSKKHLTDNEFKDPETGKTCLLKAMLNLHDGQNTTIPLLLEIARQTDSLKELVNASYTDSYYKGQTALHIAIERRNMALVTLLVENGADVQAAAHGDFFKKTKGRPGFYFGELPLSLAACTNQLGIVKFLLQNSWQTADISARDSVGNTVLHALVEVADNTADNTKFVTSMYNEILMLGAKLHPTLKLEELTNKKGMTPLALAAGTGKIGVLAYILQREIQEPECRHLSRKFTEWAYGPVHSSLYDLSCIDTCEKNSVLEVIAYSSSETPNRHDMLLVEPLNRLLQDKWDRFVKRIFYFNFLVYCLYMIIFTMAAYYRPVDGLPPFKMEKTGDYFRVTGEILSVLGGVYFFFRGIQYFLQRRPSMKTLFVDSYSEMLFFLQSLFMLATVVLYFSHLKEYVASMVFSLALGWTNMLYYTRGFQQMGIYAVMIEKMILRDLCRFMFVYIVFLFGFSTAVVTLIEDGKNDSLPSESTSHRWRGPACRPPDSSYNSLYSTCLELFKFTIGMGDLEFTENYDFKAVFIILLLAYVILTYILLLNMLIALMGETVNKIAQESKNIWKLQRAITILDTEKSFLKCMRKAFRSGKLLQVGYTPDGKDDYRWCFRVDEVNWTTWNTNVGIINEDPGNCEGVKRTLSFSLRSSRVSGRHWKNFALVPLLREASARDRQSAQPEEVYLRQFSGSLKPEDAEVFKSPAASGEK

[9] = 5 ul of 5.0% w/w solution, 48-hour exposure

In the case of `C=C(C)C1CCC(C)=CC1c1c(O)cc(CCCCC)cc1O` (stereo not drawn) [CBD, 2-[3-methyl-6-(1-methylethenyl)-2-cyclohexen-1-yl]-5-pentyl-1,3-benzenediol], the “effect on airway obstruction” value [1] is listed as “reduced airway obstruction”, the “CBD in the receptor phase (skin permeation)” value [2, 9] is listed as under 278 ng/cm^2 and the “CBD in the receptor phase (skin permeation), percent of applied dose” value [2, 9] is listed as “less than 0.081%”. For the same compound, the “dermal deposition of CBD” value ([2]; 48-hour period) was 4.54 % of the applied dose, the dermis concentration ([2]; 48-hour period) was 8,408 ng/cm^2 and the “dermis concentration per tissue” value ([2]; 48-hour period) was 1,933 ng/g of tissue. The “dermis concentration, volume equivalent” value ([2]; 48-hour period) was ~1,933 ng/mL, the “epidermal deposition of CBD” value ([2]; 48-hour period) was 13.17 % of the applied dose and the “effects on immortalized human sebocytes” value [3] was “lipostatic, anti-proliferative, and anti-inflammatory effects”. The “effect on cardiac inflammation” value [4] was “attenuated cardiac inflammation”, the “mean pre-dose CBD level Day 21” value ([5]; Cohort 1: 1 mL QD) was 0.545 ng/mL and the “mean pre-dose CBD level Day 21” value ([5]; Cohort 2: 1 mL BID) was 0.770 ng/mL. The “mean CBD trough level Day 15” value ([5]; Cohort 2: 1 mL BID) was 0.781 ng/mL, the “mean pre-dose CBD level Day 21” value ([5]; Cohort 3: 3 mL QD) was 0.715 ng/mL and the “mean CBD trough level Day 15” value ([5]; Cohort 3: 3 mL QD) was 0.525 ng/mL. For the same compound, the “CBD trough level Day 15 of the outlier subject” value ([5]; Cohort 4, one subject) was 5.99 ng/mL, the “mean pre-dose CBD level Day 21” value ([5]; Cohort 4: 3 mL BID) was 1.553 ng/mL and the “mean CBD trough level Day 15” value ([5]; Cohort 4: 3 mL BID, all subjects) was 2.11 ng/mL. The “mean CBD trough level Day 15 without outlier subject” value ([5]; Cohort 4: 3 mL BID, one outlier excluded) was 1.16 ng/mL, the “Cmax Day 21 relative to Day 1 Cmax, mean” value ([5]; accumulation after 14 days dosing) was 1.92 times and the “subjects with circulating levels of CBD” value ([6]; Day 35 visit, 7 days after final dose) was “Nine”. For the same compound, the “study drug (CBD) plasma levels” value ([6]; throughout the study, 225 mg CBD per day) was “low”, the effect on anandamide [7] was “inhibit” and the “effect on human vanilloid receptor type 1 (VR1)” value [8] was “stimulate”.

Source: patent publication US20210059961A1, “CANNABINOID DOSING REGIME FOR ACNE” (priority 2018, published 2021)
